Results from paper PMC4623604, “Discovery of Small Molecules that Inhibit the Disordered Protein, p27^Kip1” (Scientific Reports, 2015).
Each block holds one molecule with its values, some of them ahead of it.

What was measured:
p27-KID [1] = biological target: T1, p27-KID (Homo sapiens, UniProt P46527); experiment: NMR fragment screening and 2D 1H-15N HSQC chemical shift perturbation mapping; format: binding; design: key to Binding Group (site of chemical shift perturbations in p27-KID): Molecules in Group 1 bound to a localized region, F87YY89; molecules in Group 2 bound to this region as well as two others containing two W residues (W60 and W76); conditions: 100 μM 15N-p27-KID; for chemical shift perturbations in 2D HSQC spectra of p27-KID: titrated to 30-fold molar excess (3 mM)
T1 construct: 6xHis (N, cleaved yes); made in house; host or cells: E. coli (pET28a)
Source text: We used one-dimensional (1D) ^1H WaterLOGSY[35] and STD[36] […] Fragment molecules were selected from either a commercial library (1,100 compounds from the Ro3 collection, Maybridge/Thermo Fisher Scientific) or an in-house library of 1,222 compounds based on the “Rule of Three”[40] and other criteria (see Methods). […] Binding sites for these compounds were identified by titration into ^15N-p27-KID and analysis of two-dimensional (2D) ^1H-^15N HSQC spectra. […] We termed these molecules Groups 1 and 2, respectively (Fig. 1b,c); representative ^1H CSP histograms are shown in Fig. 1d,e, and ^15N CSPs are presented in Suppl. Fig. 2. Data for all other small molecules are shown in Suppl. Fig. 3.
Screening and validation NMR experiments were performed at 298 K (25 °C) using either a Varian Inova 600 MHz spectrometer equipped with a triple resonance (HCN) room temperature gradient probe or a Bruker Avance 600 MHz spectrometer equipped with TCI cryogenic gradient probe and a SampleJet sample changer. Fragment molecules were initially analyzed as pools of five molecules dissolved at 10 mM each in DMSO-D6. […] For initial fragment screening experiments, one-dimensional (1D) ^1H- and WaterLOGSY[35] NMR spectra were recorded for compound pools without and with protein. […] DMSO-D6 was added to maintain a constant concentration (2% vol/vol). […] Tryptophan and tyrosine, respectively, were titrated into ^15N-p27-KID (100 μM) up to 3 mM. Three-dimensional (3D) backbone triple-resonance experiments to establish resonance assignments for the p27 constructs were performed using the Bruker Avance 600 MHz spectrometer. […] Fig. 12b,c and d,e, respectively. 2D ^1H-^15N TROSY-HSQC NMR experiments with ^2H/^13C/^15N-p27-D2/Cdk2/cyclin A and SJ403 have been recorded at 308 K (35 °C). 2D ^1H-^15N HSQC experiments of representative fragment hits (1 mM of SJ319843, group 1 and SJ403, group 2, respectively) with ^15N-p21-KID (20 μM) were recorded at 298 K using a Bruker Avance 600 MHz spectrometer. NMR spectra were processed using Bruker Topspin software and analyzed using computer-aided resonance assignment (CARA) software.
Chemical shift perturbations are generally quantified as combined ^1H and ^15N chemical shift values. […] Thus, the use of a combined chemical shift values would mask the effects of compound binding. […] Thus, the assessment of statistical significance was based upon whether a particular CSP value was larger than, i) the experimental spectral resolution in the given dimension (^1H or ^15N) and ii) the quantity, Δδave + 2σ, for that dimension.

p27-KID [2] = biological target: T1, p27-KID; experiment: NMR 2D 1H-15N in-phase HSQC titration, binding affinity for p27:small molecule interactions; conditions: sixteen-point titration, 100 μM 15N-p27-KID, inhibitor 0-3 mM
Experimental: 1D and 2D NMR analysis of these molecules led to the identification of 15 additional p27-D2-binding compounds (six with Group 1-like binding features and nine with Group 2-like features; Suppl. Fig. 3b and Suppl. Table 1b).
Sixteen point titrations of representative fragment hits from Group 1 and Group 2 (SJ572710 and SJ572403, respectively) into ^15N-p27-KID (100 μM) were recorded using an adopted “in-phase” 2D ^1H-^15N HISQC with proton decoupling during ^15N chemical shift labeling achieved with a WALTZ16 composite pulse with an amplitude of 7.1 kHz[54][55]. All experiments were collected at a Bruker Avance 800 MHz spectrometer equipped with TCI cryogenic gradient probe. The following molar ratios of ^15N-p27-KID (100 μM) to inhibitor were used: 1:0, 1:0.1, 1:1.5, 1:3, 1:4.5, 1:6, 1:7.5, 1:9, 1:10.5, 1:12, 1:15, 1:18, 1:21, 1:24, 1:27 and 1:30. Each spectrum was recorded with 256 (t1,max = 31.0 ms) and 1024 (t2,max = 106.5 ms) complex points in the ^15N and ^1H dimensions, respectively, with eight transients collected per point. The spectral resolution of the ^1H and ^15N dimensions was 2.4 and 1.7 Hz, respectively. […] The data was processed using the NMRPipe package[56] and analyzed using in-house scripts written in Python using the Scipy computing libraries and Mathematica (Wolfram Research). […]

Cdk2/cyclin A [3] = biological target: T2, Cdk2/cyclin A (Homo sapiens, UniProt P24941); experiment: Fluorescence anisotropy analysis of Cdk2/cyclin A binding to p27-D2-FL; conditions: Alexa Fluor 488 labeled p27-D2
T2 construct: Full length human Cdk2, active Cdk2 (phosphorylated at threonine 160); truncated human cyclin A (residues 173–432); made in house
Experimental: Figure 4 Fluorescence anisotropy analysis of displacement of p27-D2-FL from Cdk2/cyclin A by SJ403. (a) Fluorescence anisotropy analysis of Cdk2/cyclin A binding to p27-D2-FL. The starting condition (20 nM p27-D2-FL, 300 nM Cdk2/cyclin A) for assessing the effect of fragment hit SJ403 on p27 function is represented as the red circle on the binding isotherm. (b) Titration of SJ403 (0–3 mM) caused the displacement of p27-D2 from Cdk2/cyclin A, resulting in a decrease in fluorescence anisotropy values. Experiments were performed in triplicate and average values and the standard deviations of the means are shown.
The p27-D2-C99S-R93C mutant was conjugated with Alexa Fluor488-C5-Maleimide (Life Technologies, p27-D2-FL) in buffer containing 20 mM Na phosphate, pH7.3, 20 mM NaCl according to the manufacturer’s protocol. The conjugated protein was further purified by reverse-phase high performance liquid chromatography (HPLC) using a C4 column (Vydac) and 0.1% trifluoroacetic acid-containing water/acetonitrile solvent system. […] Fluorescence anisotropy measurements were performed at 25 °C on a Horiba Fluorolog 3 spectrofluorometer. […] All samples have been incubated overnight in the dark at 4 °C prior to fluorescence measurements. Fluorescence anisotropy binding data was analyzed using KaleidaGraph. […]

Cdk2/cyclin A [4] = biological target: T2, Cdk2/cyclin A; experiment: Cdk2/cyclin A kinase activity assay (Histone H1 substrate); format: biochemical
Experimental: Cdk2/Cyclin A (200 pM) was mixed with Histone H1 (15 μM; EMD Millipore), p27-D2 (200 nM) and varied amounts of lyophilized SJ403 and incubated overnight at 4 °C. The effect of the SJ403 compound on Cdk2 activity was determined by performing similar experiments in the absence of p27-D2. Subsequently, ATP (50 μM total concentration, of which 6 μCi γ ^32P-ATP (PerkinElmer, Inc)) was added to each reaction and further incubated for 35 minutes at 30 °C. […] The sample buffer contained 20 mM HEPES pH 7.3, 25 mM sodium β-glycerolphosphate, 15 mM MgCl2, 16 mM EGTA, 0.5 mM Na3VO4 and 10 mM DTT. The reactions were quenched by addition of SDS-gel loading buffer (5 μL) and then analyzed by SDS-PAGE (10 μL). The gels were dried at 70 °C under vacuum and a phosphoimager (GE Healthcare, Piscataway, NJ) was used to quantify the ^32P-Histone H1 bands. IC50 values were determined by curve fitting using KaleidaGraph software. Experiments were performed in triplicate and mean IC50 and standard deviations of the mean values are reported.

T1 sequence (P46527 22-105): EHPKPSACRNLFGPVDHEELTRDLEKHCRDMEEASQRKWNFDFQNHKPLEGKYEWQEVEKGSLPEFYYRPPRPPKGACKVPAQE

Binding Group (site of chemical shift perturbations in p27-KID) (p27-KID [1]; 2D 1H-15N HSQC): Group 1 | Kd (p27-KID [2]): 4800 ± 1300 µM
Molecule: O=c1oc2cc(OCCO)ccc2c2c1CCCC2 [SJ710]

Molecule: N[C@@H](Cc1c[nH]c2ccccc12)C(=O)O [tryptophan, reference compound]
chemical shift perturbations in 2D HSQC spectra of p27-KID (p27-KID [1]): neither aromatic amino acid cause chemical shift perturbations

Molecule: N[C@@H](Cc1ccc(O)cc1)C(=O)O [tyrosine, reference compound]
chemical shift perturbations in 2D HSQC spectra of p27-KID (p27-KID [1]): neither aromatic amino acid cause chemical shift perturbations

Kd (Cdk2/cyclin A [3]): 0.073 ± 0.008 µM | IC50 (Cdk2/cyclin A [4]; 200 pM Cdk2/cyclin A, Histone H1 substrate, read-out: IC50, inhibition of Cdk2/cyclin A): 0.152 ± 0.039 µM
Molecule: p27-D2: D2 sub-domain of p27, residues 58-105 of human p27 (RKWNFDFQNHKPLEGKYEWQEVEKGSLPEFYYRPPRPPKGACKVPAQE; UniProt P46527 58-105, looked up, fragment)
Cdk2 kinase activity maintained (of full kinase activity) (Cdk2/cyclin A [4]; 200 nM p27-D2, 200 pM Cdk2/cyclin A, before SJ403): ~ 13%
